Laboratory results as given in US20250011288A1 (BRISTOL-MYERS SQUIBB COMPANY, priority 2021, published 2025).

Legend:
[1] = intravenous (IV) formulation; cited from earlier work
human RXFP1 = target: T1, human RXFP1 (Homo sapiens, UniProt Q9HBX9); test: human RXFP1 (hRXFP1) HEK293 cAMP assay (HTRF); format: cell-based; conditions: HEK293 cells stably expressing human RXFP1, 30 min at room temperature
T1 construct: expressed in transfected cells
T1 sequence (Q9HBX9 1-757): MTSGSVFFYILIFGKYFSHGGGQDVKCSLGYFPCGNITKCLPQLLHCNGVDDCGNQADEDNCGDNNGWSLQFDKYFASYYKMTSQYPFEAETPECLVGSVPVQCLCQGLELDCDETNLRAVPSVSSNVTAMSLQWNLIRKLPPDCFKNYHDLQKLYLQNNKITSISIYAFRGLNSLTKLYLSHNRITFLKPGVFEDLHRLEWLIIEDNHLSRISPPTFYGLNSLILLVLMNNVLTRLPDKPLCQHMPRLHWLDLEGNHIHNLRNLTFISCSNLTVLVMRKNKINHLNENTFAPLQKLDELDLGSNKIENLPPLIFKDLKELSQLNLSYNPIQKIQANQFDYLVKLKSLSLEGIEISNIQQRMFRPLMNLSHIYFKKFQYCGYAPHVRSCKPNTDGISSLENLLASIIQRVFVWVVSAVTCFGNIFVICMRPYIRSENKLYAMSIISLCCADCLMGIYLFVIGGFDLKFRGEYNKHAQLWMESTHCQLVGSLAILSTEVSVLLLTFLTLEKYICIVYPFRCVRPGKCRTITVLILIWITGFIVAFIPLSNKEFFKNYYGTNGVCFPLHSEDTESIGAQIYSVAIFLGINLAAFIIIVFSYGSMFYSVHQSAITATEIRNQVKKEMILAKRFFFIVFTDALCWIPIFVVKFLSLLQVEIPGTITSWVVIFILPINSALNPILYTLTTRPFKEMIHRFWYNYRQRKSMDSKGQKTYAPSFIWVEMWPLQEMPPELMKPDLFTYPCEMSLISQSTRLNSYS
Outline: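 Intracellular cAMP was quantified by HTRF after a 30 min room-temperature exposure of hRXFP1-HEK293 cells (1500/well) to compound at 0.010 nM–50 µM final, 2% DMSO. Buffer was HBSS with 20 mM HEPES, 0.05% BSA and 0.5 mM IBMX; values came from a 4-parameter logistic fit.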

Row | EC50 (human RXFP1) [nM] | Molecule | first-phase pharmacokinetic half-life [1] [min]
1 |  | Serelaxin | 5.4
2 | 42 | COc1ncc(-c2cc([C@H](OC(=O)Nc3ccccc3)C(F)(F)F)ccc2F)nc1C(=O)N[C@@H]1C2CCC(/C2=C/C(F)(F)F)[C@@H]1C(=O)Nc1ccc(F)c(C(F)(F)F)c1 (stereo partly drawn) [Example 35, (1S)-2,2,2-trifluoro-1-[4-fluoro-3-(6-{[(2R,3S,7Z)-3-{[4-fluoro-3-(trifluoromethyl)phenyl]carbamoyl}-7-(2,2,2-trifluoroethylidene)bicyclo[2.2.1]heptan-2-yl]carbamoyl}-5-methoxypyrazine-2-yl)phenyl]ethyl N-phenylcarbamate] | 
3 | 110 | COc1cc2c(cc1C(=O)N[C@H]1[C@@H](C(=O)Nc3ccc(F)c(C(F)(F)F)c3)[C@H]3CC[C@@H]1/C3=C\C1CC1)CN(S(=O)(=O)CC(C)C)CC2 [Example 88, N-((1R,2R,3S,4R,Z)-7-(cyclopropylmethylene)-3-((4-fluoro-3-(trifluoromethyl)phenyl)carbamoyl)bicyclo[2.2.1]heptan-2-yl)-2-(isobutylsulfonyl)-6-methoxy-1,2,3,4-tetrahydroisoquinoline-7-carboxamide] | 
4 | 660 | COc1ccncc1C(=O)N[C@@H]1C2CCC(C2=C(C)C)[C@@H]1C(=O)Nc1ccc(F)c(C(F)(F)F)c1 (stereo partly drawn) [Example 2, N-[(2R,3S)-3-{[4-fluoro-3-(trifluoromethyl)phenyl]carbamoyl}-7-(propan-2-ylidene)bicyclo [2.2.1]heptan-2-yl]-4-methoxypyridine-3-carboxamide] | 
5 | 2.6 | COc1ncc(C2=NOC3CC(C(O)C(F)(F)F)CC23)cc1C(=O)N[C@H]1[C@@H](C(=O)Nc2ccc(F)c(C(F)(F)F)c2)[C@H]2CC[C@@H]1/C2=C\C1CCC1 (stereo partly drawn) [Example 122, N-((1R,2R,3S,4R,Z)-7-(cyclobutyl-methylene)-3-((4-fluoro-3-(trifluoromethyl)phenyl)carbamoyl)bicyclo[2.2.1]heptan-2-yl)-2-methoxy-5-(5-(2,2,2-trifluoro-1-hydroxyethyl)-3a,5,6,6a-tetrahydro-4H-cyclopenta[d]isoxazol-3-yl)nicotinamide] | 
6 | 3.5 | CC(C)(C)CNC(=O)[C@@H]1[C@H](NC(=O)c2cc(C3=NOC4CC(CO)CC34)cc3c2OC(C)(C)C3)[C@@H]2CC[C@H]1/C2=C/C1CC1 (stereo partly drawn) [Example 146, N-[(1R,2R,3S, 4R,7Z)-7-(cyclopropyl-methylidene)-3-[(2,2-dimethylpropyl)carbamoyl]bicyclo [2.2.1]heptan-2-yl]-5-[5-(hydroxymethyl)-3aH,4H,5H,6H,6aH-cyclopenta[d][1,2]oxazol-3-yl]-2,2-dimethyl-2,3-dihydro-1-benzofuran-7-carboxamide] | 
7 | 4.1 | CC1Cc2cc(C3=NOC4CC(O)CC34)cc(C(=O)N[C@H]3[C@@H](C(=O)Nc4ccc(F)c(C(F)(F)F)c4)[C@H]4CC[C@@H]3/C4=C\C3CC3)c2O1 (stereo partly drawn) [Example 154, N-[(1R,2R,3S,4R, 7Z)-7-(cyclopropyl-methylidene)-3-{[4-fluoro-3-(trifluoromethyl)phenyl]carbamoyl}bicyclo[2.2.1]heptan-2-yl]-5-{5-hydroxy-3aH,4H,5H,6H, 6aH-cyclopenta[d][1, 2]oxazol-3-yl}-2-methyl-2,3-dihydro-1-benzofuran-7-carboxamide] | 
8 | 0.8 | COc1ncc(-c2cc([C@H](OC(=O)Nc3ccccc3)C(F)(F)F)ccc2F)cc1C(=O)N[C@@H]1C2CCC(/C2=C/C2CC2)[C@@H]1C(=O)Nc1ccc(F)c(C(F)(F)F)c1 (stereo partly drawn) [Example 186, (1S)-1-[3-(5-{[(2R,3S,7Z)-7-(cyclopropyl-methylidene)-3-{[4-fluoro-3-(trifluoromethyl)phenyl]carbamoyl}bicyclo[2.2.1]heptan-2-yl]carbamoyl}-6-methoxypyridin-3-yl)-4-fluorophenyl]-2,2,2-trifluoroethyl N-phenylcarbamate] | 
9 | 65 | O=C(NC1CCC1)O[C@@H](c1ccc(F)c(-c2cc(C(=O)N[C@@H]3C4CCC(/C4=C/C(F)(F)F)[C@@H]3C(=O)Nc3ccc(F)c(C(F)(F)F)c3)c(OCCO)cn2)c1)C(F)(F)F (stereo partly drawn) [Example 46, (1S)-2,2,2-trifluoro-1-[4-fluoro-3-(4-{[(2R,3S,7Z)-3-{[4-fluoro-3-(trifluoromethyl)phenyl]carbamoyl}-7-(2,2,2-trifluoroethylidene)bicyclo[2. 2.1]heptan-2-yl]carbamoyl}-5-(2-hydroxyethoxy)pyridin-2-yl)phenyl]ethyl N-cyclobutyl-carbamate] | 
10 | 3.2 | COc1ncc(C2=NOC3CC(CO)CC23)cc1C(=O)N[C@@H]1C2CCC(/C2=C/c2csc(C)n2)[C@@H]1C(=O)N[C@H](C)C1(C)CC1 (some centres unmarked) [Example 99] | 
11 | 6.5 | CC(C)(O)CN1CC2ON=C(c3cc4c(c(C(=O)N[C@H]5[C@@H](C(=O)Nc6ccc(F)c(C(F)(F)F)c6)[C@H]6CC[C@@H]5/C6=C\C5CC5)c3)OC(C)(C)C4)C2C1 (stereo partly drawn) [Example 179, N-[(1R,2R,3S,4R, 7Z)-7-(cyclopropyl-methylidene)-3-{[4-fluoro-3-(trifluoromethyl)phenyl]carbamoyl}bicyclo[2.2.1]heptan-2-yl]-5-[5-(2-hydroxy-2-methylpropyl)-3aH,4H,5H,6H, 6aH-pyrrolo[3,4-d][1,2]oxazol-3-yl]-2,2-dimethyl-2,3-dihydro-1-benzofuran-7-carboxamide] | 
